Reference: patent US20260232774A1, “COMPOSITIONS AND METHODS FOR TREATING INTESTINAL MICROBIOME DYSBIOSIS” (The Regents of the University of Michigan, priority 2023, published 2026)

System: GVHD in GF B6 BMT recipients
Conditions: mouse, in vivo
Description: (A) The details of the experimental design were shown in FIG. 12G to L. Quantification of iron in stool from colon and ileum in Allo B6 and Allo B6 deferasirox at 7 day and 21 day after BMT were shown (Day7, N=2, Day21, Vehicle: N=4, Deferasirox: N=2). (B) The percent of IFNγ+CD4, IFNγ+CD8, and Treg cells in spleen from recipients at day7 after BMT were shown (N=4). (C) The cytokine levels of IFNγ, TNFα, and IL17A in serum from recipients at day7 after BMT were shown (Vehicle: N=3, Deferasirox: N=4). (D to F) GF mice received BMT from BALB/c donor mice. BMT recipients were orally treated with deferasirox (20 mg/kg) and vehicle every day. (D) Hypoxyprobe staining and relative fluorescent intensity in colon from recipients 21 days after BMT (scale bar=50 μm). Three independent experiments were performed. Survival rate (E) and clinical GVHD score (F) of BMT recipients (Syn GF vehicle: N=2, Syn GF deferasirox: N=2, Allo GF vehicle: N=8, Allo GF deferasirox: N=10). The horizontal line in box (C) represents the median with the box bounding the interquartile range. The ends of the whisker lines represent the minimum and maximum values. […]
Because alteration of O2 affects host IECs in addition to the microbiome, we next determined whether restoring intestinal hypoxia by Fe chelation after allo-HSCT mitigated GVHD independent of its impact on dysbiosis. […]

O=C(O)c1ccc(-n2nc(-c3ccccc3O)nc2-c2ccccc2O)cc1 [deferasirox]
survival and GVHD of syngeneic GF mice: survived without GVHD
